Source: ChEMBL document CHEMBL1201862, “PubChem BioAssay data set” (2004)
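Grown in 96-well plates, cells were treated for 48 hours with each compound at five concentrations. Insufficient inhibition: endpoint recorded as highest concentration tested. GI50 is the concentration that inhibits growth by half.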 The source made the active and inactive calls. No stated cut-off is given here; in the data, active = GI50 up to about 1.1 µM and inactive = higher.

How the values were obtained:
Assay in all cases: NCI-60 cell line screen, 48 h
[1] = system: MCF7
[2] = system: SR
[3] = system: NCI-H522
[4] = system: RPMI-8226
[5] = system: TK-10
[6] = system: A549
[7] = system: 786-0
[8] = system: UO-31
[9] = system: NCI-H226
[10] = system: LOX IMVI
[11] = system: SNB-19
[12] = system: MDA-MB-435
[13] = system: OVCAR-3
[14] = system: IGROV-1
[15] = system: HCC 2998
[16] = system: SN12C
[17] = system: COLO 205
[18] = system: SF-268
[19] = system: NCI/ADR-RES
[20] = system: EKVX

SMILES	GI50 [1]	GI50 [2]	GI50 [3]	GI50 [4]	GI50 [5]	GI50 [6]	GI50 [7]	GI50 [8]	GI50 [9]	GI50 [10]	GI50 [11]	GI50 [12]	GI50 [13]	GI50 [14]	GI50 [15]	GI50 [16]	GI50 [17]	GI50 [18]	GI50 [19]	GI50 [20]
CC(=O)OCC1OC(N2C(c3ccccc3)=CC(c3ccccc3)C(C#N)=C2S)C(OC(C)=O)C(OC(C)=O)C1OC(C)=O (stereo unspecified)	19.4 µM (inactive)	42 µM (inactive)	7.89 µM (inactive)	13.3 µM (inactive)	22.2 µM (inactive)	7.62 µM (inactive)	2.33 µM (inactive)	19.2 µM (inactive)	12.7 µM (inactive)	4.49 µM (inactive)	5.96 µM (inactive)	4.92 µM (inactive)	16.9 µM (inactive)	18.2 µM (inactive)	25.4 µM (inactive)	3.56 µM (inactive)	1.89 µM (inactive)	5.33 µM (inactive)	14.3 µM (inactive)	
Brc1ccccc1/C=N\C12CC3CC(CC(C3)C1)C2	7.24 µM (inactive)	1.15 µM (inactive)	> 100 µM (inactive)	3.31 µM (inactive)	> 100 µM (inactive)	> 100 µM (inactive)	> 52.8 µM (inactive)	> 100 µM (inactive)	> 100 µM (inactive)	19.9 µM (inactive)	> 100 µM (inactive)	8.47 µM (inactive)	23.8 µM (inactive)	> 100 µM (inactive)	> 100 µM (inactive)	> 63.1 µM (inactive)	> 100 µM (inactive)	99.1 µM (inactive)	> 100 µM (inactive)	> 100 µM (inactive)
CC(C)=CC(=O)c1[nH]c2ccccc2c1CC(=O)NCCc1cn(C(c2ccccc2)(c2ccccc2)c2ccccc2)cn1	2.99 µM (inactive)	0.979 µM (active)	6.71 µM (inactive)	1.98 µM (inactive)	6.76 µM (inactive)	2.87 µM (inactive)	3.82 µM (inactive)	3.55 µM (inactive)	2.94 µM (inactive)	2.02 µM (inactive)	6.05 µM (inactive)	2.06 µM (inactive)	3.84 µM (inactive)	3.84 µM (inactive)	1.97 µM (inactive)	2.81 µM (inactive)	1.81 µM (inactive)	16.8 µM (inactive)	3.17 µM (inactive)	3.48 µM (inactive)
S=C1NCCN1C(=S)NC1CCCCC1	43.1 µM (inactive)	35.8 µM (inactive)	22.1 µM (inactive)	30 µM (inactive)	27.6 µM (inactive)	27 µM (inactive)	37.9 µM (inactive)	26.7 µM (inactive)	22.2 µM (inactive)	35.8 µM (inactive)		26.2 µM (inactive)	31.3 µM (inactive)	68.1 µM (inactive)	20.9 µM (inactive)	38.2 µM (inactive)	27 µM (inactive)	34.7 µM (inactive)	29.2 µM (inactive)	29.1 µM (inactive)
CCc1ccc2nccc(NCCCN(C)C)c2c1[N+](=O)[O-]	72.9 µM (inactive)	> 100 µM (inactive)	74.6 µM (inactive)	> 100 µM (inactive)	> 100 µM (inactive)	> 100 µM (inactive)	> 100 µM (inactive)	86.3 µM (inactive)	> 100 µM (inactive)	62.7 µM (inactive)	> 100 µM (inactive)	62.2 µM (inactive)	41.1 µM (inactive)	> 100 µM (inactive)	> 100 µM (inactive)	60.4 µM (inactive)	30.7 µM (inactive)	> 100 µM (inactive)	> 100 µM (inactive)	> 100 µM (inactive)
CSC1=NC(=O)CCN1C1OCC(OC(C)=O)C(OC(C)=O)C1OC(C)=O (stereo unspecified)	63.8 µM (inactive)	4.51 µM (inactive)	18.2 µM (inactive)	6.9 µM (inactive)	17.1 µM (inactive)	18.6 µM (inactive)	16.3 µM (inactive)	19.3 µM (inactive)	18.7 µM (inactive)	> 10 µM (inactive)	16.3 µM (inactive)	17.9 µM (inactive)	12.6 µM (inactive)	15.1 µM (inactive)	21.8 µM (inactive)	20.7 µM (inactive)	23.9 µM (inactive)	16.9 µM (inactive)	15.8 µM (inactive)	20.1 µM (inactive)
CC(=O)Oc1ccc2c3c1[C@H]1O[C@H]1c1cccc(c1-3)[C@@H]1O[C@H]21	18.4 µM (inactive)	10.9 µM (inactive)	1.9 µM (inactive)	3.22 µM (inactive)	13.9 µM (inactive)	7.33 µM (inactive)	2.21 µM (inactive)	3.74 µM (inactive)	21.4 µM (inactive)	1.81 µM (inactive)	15.8 µM (inactive)	2.04 µM (inactive)	3.18 µM (inactive)		7.78 µM (inactive)	2.69 µM (inactive)	10.4 µM (inactive)	5.62 µM (inactive)	10 µM (inactive)	16.5 µM (inactive)
N#CC(c1ccccc1)N1CCCN(C(C#N)c2ccccc2)C1c1ccccc1O (stereo unspecified)	> 100 µM (inactive)	> 100 µM (inactive)	> 100 µM (inactive)	60.5 µM (inactive)	> 100 µM (inactive)	> 100 µM (inactive)	> 100 µM (inactive)	> 100 µM (inactive)	> 100 µM (inactive)	> 100 µM (inactive)	> 100 µM (inactive)	> 100 µM (inactive)	48.3 µM (inactive)	> 100 µM (inactive)	> 100 µM (inactive)	> 100 µM (inactive)	> 100 µM (inactive)	> 100 µM (inactive)	> 100 µM (inactive)	> 100 µM (inactive)
CCN(C(=S)N[C@H](C(=O)N[C@@H](C)C(=O)OC)C(C)C)c1ccccc1	87.3 µM (inactive)	18.9 µM (inactive)	16.6 µM (inactive)	63.2 µM (inactive)	88.5 µM (inactive)	> 100 µM (inactive)	59.7 µM (inactive)	60.8 µM (inactive)	> 100 µM (inactive)	52.6 µM (inactive)	> 100 µM (inactive)	64 µM (inactive)	> 100 µM (inactive)	25.8 µM (inactive)	> 100 µM (inactive)	66.8 µM (inactive)	59.6 µM (inactive)		> 100 µM (inactive)	> 100 µM (inactive)
CC1=NN(C(=O)CC(=O)Nc2ccc(C)cc2)C(=O)C1/N=N\c1ccc(S(=O)(=O)c2ccc(/N=N/C3C(=O)N(C(=O)CC(=O)Nc4ccc(C)cc4)N=C3C)cc2)cc1 (stereo unspecified)	> 100 µM (inactive)	27.5 µM (inactive)	23.3 µM (inactive)	82.4 µM (inactive)	> 100 µM (inactive)	31.6 µM (inactive)	21 µM (inactive)	> 100 µM (inactive)	> 100 µM (inactive)	16.2 µM (inactive)	> 100 µM (inactive)	84.3 µM (inactive)	64.6 µM (inactive)	28.4 µM (inactive)	83.6 µM (inactive)	50.1 µM (inactive)	> 100 µM (inactive)	> 100 µM (inactive)	> 100 µM (inactive)	> 100 µM (inactive)
CN1CCN(CC(=O)N2CCCn3c2nc2ccccc2c3=O)CC1	> 100 µM (inactive)	> 100 µM (inactive)	> 100 µM (inactive)	> 100 µM (inactive)	> 100 µM (inactive)	> 100 µM (inactive)	> 100 µM (inactive)	> 100 µM (inactive)	52.1 µM (inactive)	> 100 µM (inactive)	> 100 µM (inactive)	> 100 µM (inactive)	> 100 µM (inactive)	> 100 µM (inactive)	> 100 µM (inactive)	> 100 µM (inactive)	> 100 µM (inactive)	> 100 µM (inactive)	> 100 µM (inactive)	> 100 µM (inactive)
CC(C)[C@H]1NC(=O)[C@H]2N=C(O[C@@H]2C)[C@@H]2CCCN2C(=O)[C@H](Cc2ccccc2)NC(=O)[C@@H]2CSC(=N2)[C@@H](Cc2ccccc2)NC(=O)[C@@H]2CSC1=N2	> 100 µM (inactive)	> 100 µM (inactive)	58.2 µM (inactive)	20 µM (inactive)	> 100 µM (inactive)	84.5 µM (inactive)	> 100 µM (inactive)	59.8 µM (inactive)	> 100 µM (inactive)	75.3 µM (inactive)	> 100 µM (inactive)	52.8 µM (inactive)	38.5 µM (inactive)	41.1 µM (inactive)	21.7 µM (inactive)	> 100 µM (inactive)	> 100 µM (inactive)	> 100 µM (inactive)	86.5 µM (inactive)	> 100 µM (inactive)
CS(=O)(=O)CS(=O)(=O)OCCCl	229 µM (inactive)	15.8 µM (inactive)	206 µM (inactive)	198 µM (inactive)	465 µM (inactive)	220 µM (inactive)	61.2 µM (inactive)	348 µM (inactive)	177 µM (inactive)	37.8 µM (inactive)	96.4 µM (inactive)	991 µM (inactive)	264 µM (inactive)	252 µM (inactive)	301 µM (inactive)	188 µM (inactive)	276 µM (inactive)	47.9 µM (inactive)	324 µM (inactive)	366 µM (inactive)
OCc1cccc(Nc2nc(O)c3[nH]cnc3n2)c1	> 100 µM (inactive)	> 100 µM (inactive)	> 100 µM (inactive)	> 100 µM (inactive)	> 100 µM (inactive)	> 100 µM (inactive)	> 100 µM (inactive)	> 100 µM (inactive)	> 100 µM (inactive)	> 100 µM (inactive)	> 100 µM (inactive)	> 100 µM (inactive)	> 100 µM (inactive)	> 100 µM (inactive)	> 100 µM (inactive)	> 100 µM (inactive)	> 100 µM (inactive)	> 100 µM (inactive)	> 100 µM (inactive)	> 100 µM (inactive)
